Measurements published in article PMC10377643, “Exploration of Bis-Cinnamido-Polyamines as Intrinsic Antimicrobial Agents and Antibiotic Enhancers” (Biomolecules, 2023).

What was measured:
S. aureus ATCC 25923 = assay: Antimicrobial MIC, S. aureus; assay type: cell-based; conditions: Staphylococcus aureus, ATCC25923, mean (n = 3)
In short: (§1)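 Broth susceptibility MICs against the listed ATCC strains. S. aureus and P. aeruginosa tested per a previously reported protocol; MRSA and C. albicans tested under CO-ADD (University of Queensland) standard protocols.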

A. baumannii AYE [1] = assay: Intrinsic MIC, A. baumannii AYE; assay type: cell-based; conditions: Acinetobacter baumannii; A. baumannii AYE; substance alone; read-out: MIC alone, A. b
Protocol: (§2) Antibiotic enhancer concentrations were determined using previously reported protocols.

E. coli ATCC 25922 [2] = assay: Erythromycin enhancement against E. coli; assay type: cell-based, Escherichia coli; conditions: erythromycin fixed at 10.9 µM (8 µg/mL)
Protocol: as §2

P. aeruginosa ATCC 27853 [3] = assay: Antimicrobial MIC, P. aeruginosa; assay type: cell-based; conditions: Pseudomonas aeruginosa, ATCC27853, mean (n = 3)
In short: as §1

A. baumannii AYE [4] = assay: Antibiotic potentiation by 13b, A. baumannii; assay type: cell-based, Acinetobacter baumannii
Protocol: as §2
(§3) The antibiotic-enhancing activities of 13b, the strongest non-toxic doxycycline enhancer, were further evaluated with an expanded set of antibiotics (minocycline, chloramphenicol, vancomycin, nalidixic acid and erythromycin) against three drug-resistant strains of Gram-negative bacteria (P. aeruginosa, K. pneumoniae and A. baumannii) (Table 3). […] However, 13b was able to strongly potentiate the activity of minocycline against P. aeruginosa, K. pneumoniae and A. baumannii (>41-fold, >82-fold and >82-fold, respectively) while also enhancing the activity of doxycycline against P. aeruginosa (>40-fold). The enhancing activity of doxycycline against A. baumannii and K. pneumoniae was not investigated due to its sensitivity to these strains.

K. pneumoniae ATCC 13883 [5] = assay: Antibiotic potentiation by 13b, K. pneumoniae; assay type: cell-based, Klebsiella pneumoniae
Protocol: as §2, §3

MRSA ATCC 43300 = assay: Antimicrobial MIC, MRSA (CO-ADD); assay type: cell-based, methicillin-resistant S. aureus; conditions: Staphylococcus aureus; MRSA ATCC 43300; mean (n = 2); read-out: MIC MRSA
In short: as §1

P. aeruginosa PAO1 [6] = assay: Antibiotic potentiation by 13b, P. aeruginosa PAO1; assay type: cell-based, Pseudomonas aeruginosa
Protocol: as §2, §3

P. aeruginosa ATCC 27853 [7] = assay: Doxycycline enhancement against P. aeruginosa; assay type: cell-based, Pseudomonas aeruginosa; conditions: doxycycline fixed at 4.5 µM
In short: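 A fixed doxycycline level of 4.5 μM was combined with test compounds over 3.125 to 50–100 μM against P. aeruginosa ATCC 27853. The top concentration was set by each compound's own MIC, and enhancer concentrations followed a previously reported protocol.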

K. pneumoniae ATCC 13883 [8] = assay: Intrinsic MIC, K. pneumoniae ATCC 13883; assay type: cell-based; conditions: Klebsiella pneumoniae, ATCC13883; K. pneumoniae ATCC 13883; substance alone; read-out: MIC alone, K. p
Protocol: as §2

E. coli ATCC 25922 [9] = assay: Antimicrobial MIC, E. coli; assay type: cell-based, Escherichia coli; conditions: Escherichia coli, ATCC25922, E. coli ATCC 25922; mean (n = 3)
In short: as §1

C. albicans ATCC 90028 = assay: Antifungal MIC, C. albicans (CO-ADD); assay type: cell-based; conditions: Candida albicans, ATCC90028, mean (n = 2)
In short: as §1

P. aeruginosa PAO1 [10] = assay: Intrinsic MIC, P. aeruginosa PAO1; assay type: cell-based; conditions: Pseudomonas aeruginosa; P. aeruginosa PAO1; substance alone (no antibiotic / no enhancer); read-out: MIC alone, P. a
Protocol: as §2

human red blood cells = assay: Hemolytic assay; assay type: cell-based; conditions: mean (n = 2)
Protocol: Hemolysis assays were conducted using the protocols previously reported.

[11] = system: HEK293 human embryonic kidney cells; assay: Cytotoxicity assay; assay type: cell-based; conditions: mean (n = 2)
Protocol: (§4) Cytotoxicity assays were conducted using the protocols previously reported.

Cytotoxicity assay = assay type: cell-based, human; conditions: human, HEK293 human embryonic kidney cells, mean (n = 2), read-out: Cytotoxicity (IC50), concentration of compound at 50% cytotoxicity
Protocol: as §4

[12] = system: C. neoformans ATCC 208821; assay: Antifungal MIC, C. neoformans (CO-ADD); assay type: cell-based; conditions: Cryptococcus neoformans, ATCC208821, mean (n = 2)
S. aureus = system: S. aureus; set-up: method as in PMID 22515429; conditions: natural product; cited from earlier work
Pseudomonas aeruginosa = system: Pseudomonas aeruginosa; set-up: method as in PMID 22515429; conditions: natural product; cited from earlier work
[13] = system: antimicrobial activity (microbes not named); set-up: method as in PMID 36982955; conditions: cited from earlier work
P. aeruginosa = system: P. aeruginosa; set-up: method as in PMID 36982955; conditions: cited from earlier work

Compound: O=C(C=Cc1ccccc1)NCCCNCCCCCCNCCCNC(=O)C=Cc1ccccc1.O=C(O)C(F)(F)F.O=C(O)C(F)(F)F [Compound 13b, N^1,N^6-Bis(3-cinnamamidopropyl)hexane-1,6-diaminium 2,2,2-trifluoroacetate]
- MIC (S. aureus ATCC 25923): > 200 µM
- MIC (A. baumannii AYE [1]): > 278 µM
- Eryth/E. c: concentration required to restore erythromycin activity (E. coli ATCC 25922 [2]): 25 µM
- Eryth/E. c: fold change (intrinsic MIC of test compound / combination MIC) (E. coli ATCC 25922 [2]): 4 fold
- MIC (P. aeruginosa ATCC 27853 [3]): > 200 µM
- Fold change, chloramphenicol (A. baumannii AYE [4]; chloramphenicol 2 µg/mL): > 4 fold
- Concentration for potentiation of chloramphenicol (A. baumannii AYE [4]; chloramphenicol 2 µg/mL, n = 2): 77.4 µM
- Fold change, erythromycin (A. baumannii AYE [4]; erythromycin 2 µg/mL): > 2 fold
- Concentration for potentiation of erythromycin (A. baumannii AYE [4]; erythromycin 2 µg/mL, n = 2): 136 µM
- Fold change, minocycline (A. baumannii AYE [4]; minocycline 2 µg/mL): > 82 fold
- Concentration for potentiation of minocycline (A. baumannii AYE [4]; minocycline 2 µg/mL, n = 2): 3.41 µM
- Concentration for potentiation of nalidixic acid (A. baumannii AYE [4]; nalidixic acid 2 µg/mL, n = 2): >200 µM
- Fold change, vancomycin (A. baumannii AYE [4]; vancomycin 2 µg/mL): > 2 fold
- Concentration for potentiation of vancomycin (A. baumannii AYE [4]; vancomycin 2 µg/mL, n = 2): 138 µM
- Concentration for potentiation of chloramphenicol (K. pneumoniae ATCC 13883 [5]; chloramphenicol 2 µg/mL, n = 2): >200 µM
- Concentration for potentiation of erythromycin (K. pneumoniae ATCC 13883 [5]; erythromycin 2 µg/mL, n = 2): >200 µM
- Fold change, minocycline (K. pneumoniae ATCC 13883 [5]; minocycline 2 µg/mL): > 82 fold
- Concentration for potentiation of minocycline (K. pneumoniae ATCC 13883 [5]; minocycline 2 µg/mL, n = 2): 3.41 µM
- Concentration for potentiation of nalidixic acid (K. pneumoniae ATCC 13883 [5]; nalidixic acid 2 µg/mL, n = 2): >200 µM
- Fold change, vancomycin (K. pneumoniae ATCC 13883 [5]; vancomycin 2 µg/mL): > 2 fold
- Concentration for potentiation of vancomycin (K. pneumoniae ATCC 13883 [5]; vancomycin 2 µg/mL, n = 2): 138 µM
- MIC (MRSA ATCC 43300): > 44.5 µM
- Fold change, chloramphenicol (P. aeruginosa PAO1 [6]; chloramphenicol 2 µg/mL): > 7 fold
- Concentration for potentiation of chloramphenicol (P. aeruginosa PAO1 [6]; chloramphenicol 2 µg/mL, n = 2): 38.7 µM
- Fold change, doxycycline (P. aeruginosa PAO1 [6]; doxycycline 2 µg/mL): > 40 fold
- Concentration for potentiation of doxycycline (P. aeruginosa PAO1 [6]; doxycycline 2 µg/mL, n = 2): 7.03 µM
- Fold change, erythromycin (P. aeruginosa PAO1 [6]; erythromycin 2 µg/mL): > 2 fold
- Concentration for potentiation of erythromycin (P. aeruginosa PAO1 [6]; erythromycin 2 µg/mL, n = 2): 136 µM
- Fold change, minocycline (P. aeruginosa PAO1 [6]; minocycline 2 µg/mL): > 41 fold
- Concentration for potentiation of minocycline (P. aeruginosa PAO1 [6]; minocycline 2 µg/mL, n = 2): 6.83 µM
- Dox/P. a: concentration required to restore doxycycline activity (P. aeruginosa ATCC 27853 [7]): 3.125 µM
- MIC (K. pneumoniae ATCC 13883 [8]): > 278 µM
- MIC (E. coli ATCC 25922 [9]): 100 µM
- MIC (C. albicans ATCC 90028): > 44.5 µM
- MIC (P. aeruginosa PAO1 [10]): > 278 µM
- Hemolysis (HC10), concentration of compound at 10% hemolytic activity (human red blood cells): >44.5 µM
- Cytotoxicity (IC50), concentration of compound at 50% cytotoxicity [11]: non-toxic
- IC50 (Cytotoxicity assay): > 44.5 µM
- MIC [12]: 44.5 µM

Compound: COc1c(Br)cc(/C=C/C(=O)NCCCNCCCCNCCCNC(=O)/C=C/c2cc(Br)c(OC)c(Br)c2)cc1Br.O=C(O)C(F)(F)F.O=C(O)C(F)(F)F [Compound 16a, N^1,N^4-Bis(3-((E)-3-(3,5-dibromo-4-methoxyphenyl)acrylamido)propyl)butane-1,4-diaminium 2,2,2-trifluoroacetate]
- MIC (S. aureus ATCC 25923): 5.86 µM
- MIC, growth inhibition towards S. aureus (S. aureus): 17.5 µM
- Eryth/E. c: concentration required to restore erythromycin activity (E. coli ATCC 25922 [2]): 11.7 µM
- Eryth/E. c: fold change (intrinsic MIC of test compound / combination MIC) (E. coli ATCC 25922 [2]): 1 fold
- MIC (P. aeruginosa ATCC 27853 [3]): 188 µM
- MIC (MRSA ATCC 43300): ≤ 0.23 µM
- Dox/P. a: concentration required to restore doxycycline activity (P. aeruginosa ATCC 27853 [7]): 5.86 µM
- Dox/P. a: fold change (intrinsic MIC of test compound / combination MIC) (P. aeruginosa ATCC 27853 [7]): 32 fold
- MIC towards Pseudomonas aeruginosa (Pseudomonas aeruginosa): 8.75 µM
- MIC (E. coli ATCC 25922 [9]): 11.7 µM
- MIC (C. albicans ATCC 90028): 30 µM
- Hemolysis (HC10), concentration of compound at 10% hemolytic activity (human red blood cells): ≤0.23 µM
- IC50 (Cytotoxicity assay): > 30 µM
- MIC [12]: ≤ 0.23 µM

Compound: O=C(CCc1ccccc1)NCCCNCCCCCCNCCCNC(=O)CCc1ccccc1 [Compound 17]
- Antimicrobial activity [13]: devoid of antimicrobial activity
- Ability to enhance the action of doxycycline towards P. aeruginosa (P. aeruginosa): devoid

Compound: O=C(CCc1ccccc1)NCCCNCCCCCCCCNCCCNC(=O)CCc1ccccc1 [Compound 18]
- Antimicrobial activity [13]: devoid of antimicrobial activity
- Ability to enhance the action of doxycycline towards P. aeruginosa (P. aeruginosa): devoid
